Earlier results on one molecule are cited in patent US20190381137A1, “BOLAAMPHIPHILIC COMPOUNDS, COMPOSITIONS AND USES THEREOF” (Lauren Sciences LLC, priority 2012, published 2019).

SMILES strings stand for the structures.

The conditions of the series: conjugate acid (protonated form) of the imidazole side chain.

Take `N[C@@H](Cc1c[nH]cn1)C(=O)O` [histidine]: the pKa result is reported as “approximately 6.0”.
